According to US8242081B2, “Cell penetrating peptides for intracellular delivery of molecules” (Centre National de la Recherche Scientifique, priority 2005, dated 2012):
Where two headings read alike, the source gives them in different places. Peptide text beside a SMILES is read from it.

Legend:
[1] = tested on: Jurkat, WI-38, HS-68 and HeLa cells; assay: CADY-2-mediated delivery of p27-derived peptides, cell arrest in G1 by FACS; type: cell-based
Method: FIG. 12: The different p27-derived peptides were associated with CADY-2 at a molar ratio of 1/20, since it was determined that at this ratio, the average size of the particle is of about 100-200 nm in diameter. The formulations were obtained in phosphate buffer, using a fixed concentration of peptide of 1 μM. Cell lines were cultured in Dulbecco's Modified Eagle's Medium supplemented with 2 mM glutamine, 1% antibiotics (streptomycin 10'000 μg/ml, penicillin, 10'000 IU/ml) and 10% (w/v) fetal calf serum (FCS), at 37° C. in a humidified atmosphere containing 5% CO2. Cells were synchronized by serum privation during 40 hrs, and cultured in Dulbecco's Modified Eagle's Medium supplemented with 2 mM glutamine, 1% antibiotics. G1 synchronized cells were released upon serum addition, then overlaid with preformed CADY-2/peptide complexes. After 30 min incubation at 37° C., 1 ml of fresh DMEM supplemented with 10% fetal calf serum was added directly to the cells, without removing the overlay of CADY/peptide complexes, and cells were returned to the incubator. The level of cell arrest in G1 was analyzed by FACS 24 hrs after release.

HS-68 and Hela cells = assay: Toxicity of CADY variants, MTT assay (Table 1); type: cell-based, human
Method: The toxicity of CADY peptides has been investigated on different cell lines. Cells were incubated in the presence of increasing concentrations of CADY (from 0.1 μM to 1 mM) for 12 hrs and cell viability was estimated using MTT assay.
The different CADY variants have been tested on HS-68 and Hela cells.
The lack of toxicity of CADY/cargo complexes can be directly associated to absence of free carrier peptide in the solution (FIG. 4B).

[2] = tested on: Human H1299 adenocarcinoma cells; assay: Effect of p1p27/CADY complexes on tumor growth in vivo, intratumoral injection; parameters: species or system Swiss nude mice; conditions: 5 weeks after injection, control experiments
Method: The tumor animal model consists of Swiss nude mice, injected subcutaneously with 2×10^7 Human H1299 adenocarcinoma cells. CADY2/p1p27 complex and free CADY-2 and peptides were injected directly into the tumor (100-300 μg) after 1 and 4 weeks. p1p27/CADY complexes were obtained as described before at a ratio 1/20. Controls were performed by injecting PBS, CADY alone, or naked p1p27 instead of the p1p27/CADY-2 complex. The size of the tumor volume was measured with calipers once a week. Results correspond to the average of 5 different animals.

[3] = tested on: 5PC3 or Human H1299 adenocarcinoma cells; assay: Intravenous injection of siRNA/CADY complexes, tumor mouse models; type: in vivo, NCR nude mice; conditions: only one injection, siRNA 10 μg
Method: Experiments were performed on two tumor mouse models.
(A) 1×10^6 5PC3 adenocarcinoma cells were injected subcutaneously into the flanks of NCR nude mice (day 1). siRNA/CADY-S complexes were obtained as described before at a ratio 1:20. CADY-S/siRNA complexes were injected intravenously at day 7. The size of the tumor was measured every day. Results correspond to the average of 5 different animals.
(B) 1×10^6 tumor cells expressing luciferase were injected intraperitoneally in the mice (4 to 8 week-old immune competent A/J female mices). Tumors were monitored using in vivo Imaging System (IVIS-Xenogen), which quantified total body bioluminescence after injection of D-luciferin. The tumor cells are visualized on three mice, each representative of one group (siRNA alone, CADY/siRNA complexes, and CADY-S/siRNA complexes).
The in vivo efficiency of CADY-S was then investigated, in order to determine if the cholesterol-modified form of CADY can improve siRNA delivery through intravenous injection and block tumor growth in vivo. Experiments were performed on two tumor mouse models, in which 5PC3 or Human H1299 adenocarcinoma cells were injected subcutaneously into the flanks of NCR nude mice.

[4] = peptide delivered with CADY-2, ratio 1/20, 1 μM peptide, 24 hrs after release

## PSLERMDAR [pRXL]
[1]; pRXL with CADY strategy
  efficiency compared with published TAT or Pen covalent based strategy: at least 2 fold
[1]; [4]
  cell cycle arrest in G1: induced a cell cycle arrest in G1

## CC(=O)NCC(=O)N[C@@H](CC(C)C)C(=O)N[C@@H](Cc1c[nH]c2ccccc12)C(=O)N[C@@H](CCCNC(=N)N)C(=O)N[C@@H](C)C(=O)N[C@@H](CC(C)C)C(=O)N[C@@H](Cc1c[nH]c2ccccc12)C(=O)N[C@@H](CCCNC(=N)N)C(=O)N[C@@H](CC(C)C)C(=O)N[C@@H](CC(C)C)C(=O)N[C@@H](CCCNC(=N)N)C(=O)N[C@@H](CO)C(=O)N[C@@H](CC(C)C)C(=O)N[C@@H](Cc1c[nH]c2ccccc12)C(=O)N[C@@H](CCCNC(=N)N)C(=O)N[C@@H](CC(C)C)C(=O)N[C@@H](CC(C)C)C(=O)N[C@@H](Cc1c[nH]c2ccccc12)C(=O)N[C@@H](CCCCN)C(=O)N[C@@H](C)C(=O)NCCSS[C@H]1CC[C@@]2(C)C(=CC[C@H]3[C@@H]4CC[C@H]([C@H](C)CCCC(C)C)[C@@]4(C)CC[C@@H]32)C1 [CADY-S2] (HELM PEPTIDE1{[ac].G.L.W.R.A.L.W.R.L.L.R.S.L.W.R.L.L.W.K.A.[CC(C)CCC[C@@H](C)[C@H]1CC[C@H]2[C@@H]3CC=C4C[C@@H](SSCCN[*:1])CC[C@]4(C)[C@H]3CC[C@]12C]}$$$$V2.0)
HS-68 and Hela cells; 12 h
  EC50: 800 µM

## RVSNGSPSLERMDARQAEHPKPSACRNL [p1p27]
[2]
  increase of tumor size: 5 fold
[1]; carrier alone or free peptide
  cell cycle arrest in G1: no effect
[1]; [4]
  cell cycle arrest in G1: induced a cell cycle arrest in G1

## NRTEENVSDGSPNAGSVEQTPKKPGLR [p2p27, p27-derived peptide used as a negative control, reference compound]
[1]; [4]
  cell cycle arrest in G1: no effect

## CC(C)CCC[C@@H](C)[C@H]1CC[C@H]2[C@@H]3CC=C4C[C@@H](OC(=O)NCC(=O)N[C@@H](CC(C)C)C(=O)N[C@@H](Cc5c[nH]c6ccccc56)C(=O)N[C@@H](CCCNC(=N)N)C(=O)N[C@@H](C)C(=O)N[C@@H](CC(C)C)C(=O)N[C@@H](Cc5c[nH]c6ccccc56)C(=O)N[C@@H](CCCNC(=N)N)C(=O)N[C@@H](CC(C)C)C(=O)N[C@@H](CC(C)C)C(=O)N[C@@H](CCCNC(=N)N)C(=O)N[C@@H](CO)C(=O)N[C@@H](CC(C)C)C(=O)N[C@@H](Cc5c[nH]c6ccccc56)C(=O)N[C@@H](CCCNC(=N)N)C(=O)N[C@@H](CC(C)C)C(=O)N[C@@H](CC(C)C)C(=O)N[C@@H](Cc5c[nH]c6ccccc56)C(=O)N[C@@H](CCCCN)C(=O)N[C@@H](C)C(=O)NCCS)CC[C@]4(C)[C@H]3CC[C@]12C [CADY-S] (HELM PEPTIDE1{[CC(C)CCC[C@@H](C)[C@H]1CC[C@H]2[C@@H]3CC=C4C[C@@H](OC(=O)[*:2])CC[C@]4(C)[C@H]3CC[C@]12C].G.L.W.R.A.L.W.R.L.L.R.S.L.W.R.L.L.W.K.A.[SCCN[*:1]]}$$$$V2.0)
HS-68 and Hela cells; complexed with cargo (ratio 1/20), MTT, read-out: complexed EC50
  EC50: 1000 µM
[3]
  tumor growth: fully abolish the tumor growth
